# Source: patent publication US9616107B2, “Therapy for kidney disease and/or heart failure” (priority 2011, dated 2017)
# Entries after “also recorded” stand apart in the source; their conditions may differ. Like-named read-outs stand apart in the source and are kept apart here. Marks after values point to notes of the source that are not given here. Ends that are not written are not given here.
# Test: Toxicology study of VD in canines: 5-day continuous subcutaneous infusion, plasma VD by radioimmunoassay, clinical observations
# Assay type: in vivo
# Details: for half-life / AUC(0-t) / AUC / Tmax / Cmax / t1/2: beagle; for AUC(0-t): data through 122 hours; for average steady state peak concentrations: n=1 per sex
# Description: VD was administered to canines via a subcutaneous delivery route. The dosing was performed at a high level to assess the toxicity of VD and to determine if a lethal dosing amount of the VD can be reached by subcutaneous administration.
# VD was administered subcutaneously to canines using a Medtronic Paradigm® infusion pump (model MMT772) over a period of 5 days. VD was obtained as an acetate salt (VD-acetate) from Bachem (lot 2502022) and prepared in Tris/Glycerin/m-cresol buffer at a concentration of 15 mg/mL. The Tris/Glycerin/m-cresol buffer was prepared by mixing 16.0 g glycerol, 6.05 g tris-(hydroxymethyl)-aminomethane (“Tris”), 2.50 g meta cresol in a 1.00 L volumetric flask. Approximately 900 mL nanopure water was added to the volumetric flask and the mixture was magnetically stirred to reach complete dissolution. 4 normal hydrochloric acid was used to adjust pH to […] at 25° C.
# VD was administered to one male and one female beagle canine at varying dosing amounts. Each canine received a first dosage level for 5 consecutive days followed by a 2-day washout period. Then, the same canines received a second, higher dosage level for an additional 5 consecutive days.
# Prior to the beginning of dosing with VD (Day 0), the canines were placed in a sling and the dose site on the dorsolateral thorax was shaved. The shaved area was swabbed with 70% isopropyl alcohol and allowed to dry. DuraPrep™ (3M) was then applied and allowed to dry for 3 minutes. The catheter of the infusion set (Medtronic Silhouette Paradigm® Infusion Set MMT-378) was placed subcutaneously and perpendicular to the spine, and attached to the skin. The extension set was then attached to a previously weighed reservoir filled with VD at a concentration of 15 mg/mL in the Tris/Glycerin/m-cresol buffer. The reservoir was inserted into the pump located in a jacket pocket and dosing was commenced. The jacket was then secured and a collar was placed on each canine. Every day during the 5-day period, the reservoirs were exchanged with new filled reservoirs at approximately the same time each day.
# At the end of the first 5-day dosing period, the infusion sets and jackets were removed, the area where the catheter was placed was marked, and the animals were allowed a 2-day washout period prior to the next treatment. For the next treatment at the second dosing amount, a new infusion site was chosen on the skin, and the pump was prepared as before.
# The daily dosage level during the first 5-day period (Group 1) was 1.44 mg/(kg·day) (or 1000 ng/(kg·min)) for each canine corresponding with a dosage volume of 0.096 ml/(kg·day). The total dose delivered to each canine over the first 5-day period was 7.20 mg/kg. […] Following the 2-day washout period, the daily dosage level was increased to 2.88 mg/(kg·day) (or 2000 ng/(kg·min)) for each canine corresponding with a dosage volume of 0.192 ml/(kg·day) during the second 5-day period (Group 2). The total dose delivered to each canine over the second 5-day period was 14.4 mg/kg.
# All animals were observed twice daily during the first and second 5-day periods for mortality and moribund appearance. Clinical examinations were also performed daily for the animals after dosing began. Detailed physical examinations were conducted on Day 0 prior to dosing and on study Day 5 after the pumps and jackets were removed from the canines. Individual body weights were recorded twice weekly during a 7-day pretest period, on study Day 0 prior to dosing and study Day 5 after the pumps and jackets were removed from the canines. Body weights and body weight changes were calculated for the corresponding intervals. Individual food consumption was recorded daily during the pretest period and throughout the study.
# Blood samples for determination of plasma drug concentration were collected at 2, 4, 24 and 96 hours after the beginning of infusion, immediately prior to the end of infusion on Day 5, and 0.5, 1, 1.5, and 2 hours after the end of dosing. […]
sequence,measurement,setting,value
"EVVPPQVLSEPNEEAGAALSPLPEVPPWTGEVSPAQR [VD, Vessel Dilator]",half-life,"dog, in vivo, t1/2",0.735 h
same,AUC(0-t),"dog, in vivo, female canine, 1.44 mg/kg/day (7.20 mg/kg), SC infusion 5 days",34.7 µg·h/mL
same,AUC,"dog, in vivo, female canine, 1.44 mg/kg/day (7.20 mg/kg), SC infusion 5 days, τ 120 hours, read-out: AUCτ (AUGτ [sic])",34.4 µg·h/mL
same,Tmax,"dog, in vivo, female canine, 1.44 mg/kg/day (7.20 mg/kg), SC infusion 5 days, hours after start of infusion, read-out: Tmax",96 h
same,AUC,"dog, in vivo, female canine, 2.88 mg/(kg·day), maximum tolerated dose not determined, read-out: AUC that a maximum tolerated dose would exceed",> 63.3 µg·h/mL
same,Cmax,"dog, in vivo, female canine, 2.88 mg/(kg·day), maximum tolerated dose not determined, read-out: Cmax that a maximum tolerated dose would exceed",> 0.579 µg/mL
same,AUC(0-t),"dog, in vivo, female canine, 2.88 mg/kg/day (14.4 mg/kg), SC infusion 5 days",64.1 µg·h/mL
same,AUC,"dog, in vivo, female canine, 2.88 mg/kg/day (14.4 mg/kg), SC infusion 5 days, τ 120 hours, read-out: AUCτ (AUGτ [sic])",63.3 µg·h/mL
same,Tmax,"dog, in vivo, female canine, 2.88 mg/kg/day (14.4 mg/kg), SC infusion 5 days, hours after start of infusion, read-out: Tmax",96 h
same,Cmax,"dog, in vivo, female canine, 2.88 mg/kg/day (14.4 mg/kg), SC infusion 5 days, read-out: Cmax",0.579 µg/mL
same,Tmax,"dog, in vivo, female canine, both dosages, after start of infusion, read-out: Tmax",~96 h
same,AUC(0-t),"dog, in vivo, male canine, 1.44 mg/kg/day (7.20 mg/kg), SC infusion 5 days",31.2 µg·h/mL
same,AUC,"dog, in vivo, male canine, 1.44 mg/kg/day (7.20 mg/kg), SC infusion 5 days, τ 120 hours, read-out: AUCτ (AUGτ [sic])",30.9 µg·h/mL
same,AUC,"dog, in vivo, male canine, 2.88 mg/(kg·day), maximum tolerated dose not determined, read-out: AUC that a maximum tolerated dose would exceed",> 58.2 µg·h/mL
same,Cmax,"dog, in vivo, male canine, 2.88 mg/(kg·day), maximum tolerated dose not determined, read-out: Cmax that a maximum tolerated dose would exceed",> 0.655 µg/mL
same,AUC(0-t),"dog, in vivo, male canine, 2.88 mg/kg/day (14.4 mg/kg), SC infusion 5 days",58.9 µg·h/mL
same,AUC,"dog, in vivo, male canine, 2.88 mg/kg/day (14.4 mg/kg), SC infusion 5 days, τ 120 hours, read-out: AUCτ (AUGτ [sic])",58.2 µg·h/mL
same,"survival and adverse effects on weight, food consumption or behavior","both canines, 1.44 then 2.88 mg/(kg·day), 5 days each","survived to the scheduled study termination without appreciable adverse effects on weight, food consumption or behavior"
same,half-life,"both sexes, dog, in vivo, calculated half-life for elimination of Vessel Dilator in plasma",0.7 to 1.2 h
same,Tmax,"both sexes, dog, in vivo, sc",108 h
same,average steady state peak concentrations,"canines, 1000 ng/kg·min constant SC dosing 5 days",257 to 287 ng/mL
same,average steady state peak concentrations,"canines, 2000 ng/kg·min constant SC dosing 5 days",485 to 527 ng/mL
same,tolerance and toxicological effects of continuous subcutaneous infusion,"canines, up to 2.88 mg/(kg·day)",high tolerance and no noticeable toxicological effects; also recorded: well-tolerated
same,maximum tolerated dose for prolonged subcutaneous administration,"canines, expected",> 2000 ng/kg·min
same,effects on body weight,"dog, in vivo",no effects on body weight
same,effects related to food consumption,"dog, in vivo",no effects related to food consumption
same,fluctuation of plasma concentrations of VD,"dog, in vivo",approximately 30%
same,potential VD administration-related clinical observations,"dog, in vivo",reddened ears and/or reddened gums
same,systemic exposure to VD (AUCτ and Cmax) versus dosage,"dog, in vivo, 2.88 mg/kg/day",increased proportionally with the increase in dosage
same,plasma concentration up to which no toxicity issues were shown,"dogs, continuous five day subcutaneous infusion",~0.5 µg/mL
same,t1/2,"female, dog, in vivo, sc",1.21† h
same,half-life,"female, dog, in vivo, sc, t1/2",0.801 h
same,Tmax,"male, dog, in vivo",120 h
same,Tmax,"male, dog, in vivo, sc",120 h
same,t1/2,"male, dog, in vivo, sc",0.793† h
same,half-life,"male, dog, in vivo, sc, t1/2",0.735 h
